One experiment addresses H1047R PIK3CA enzyme (Homo sapiens, UniProt P42336, H1047R). The experiment in a line: ADP-Glo Biochemical PIK3CA Kinase Assay.
A short description of a further experiment: cells. The settings on record: Homo sapiens, MCF-10A, read-out: MCF10A IC50.

As a reminder, the IC50 is the concentration needed to halve the response being measured.

Where only a bound is given, the exact number is not on record here.

Chain of H1047R PIK3CA enzyme (P42336 whole entry H1047R): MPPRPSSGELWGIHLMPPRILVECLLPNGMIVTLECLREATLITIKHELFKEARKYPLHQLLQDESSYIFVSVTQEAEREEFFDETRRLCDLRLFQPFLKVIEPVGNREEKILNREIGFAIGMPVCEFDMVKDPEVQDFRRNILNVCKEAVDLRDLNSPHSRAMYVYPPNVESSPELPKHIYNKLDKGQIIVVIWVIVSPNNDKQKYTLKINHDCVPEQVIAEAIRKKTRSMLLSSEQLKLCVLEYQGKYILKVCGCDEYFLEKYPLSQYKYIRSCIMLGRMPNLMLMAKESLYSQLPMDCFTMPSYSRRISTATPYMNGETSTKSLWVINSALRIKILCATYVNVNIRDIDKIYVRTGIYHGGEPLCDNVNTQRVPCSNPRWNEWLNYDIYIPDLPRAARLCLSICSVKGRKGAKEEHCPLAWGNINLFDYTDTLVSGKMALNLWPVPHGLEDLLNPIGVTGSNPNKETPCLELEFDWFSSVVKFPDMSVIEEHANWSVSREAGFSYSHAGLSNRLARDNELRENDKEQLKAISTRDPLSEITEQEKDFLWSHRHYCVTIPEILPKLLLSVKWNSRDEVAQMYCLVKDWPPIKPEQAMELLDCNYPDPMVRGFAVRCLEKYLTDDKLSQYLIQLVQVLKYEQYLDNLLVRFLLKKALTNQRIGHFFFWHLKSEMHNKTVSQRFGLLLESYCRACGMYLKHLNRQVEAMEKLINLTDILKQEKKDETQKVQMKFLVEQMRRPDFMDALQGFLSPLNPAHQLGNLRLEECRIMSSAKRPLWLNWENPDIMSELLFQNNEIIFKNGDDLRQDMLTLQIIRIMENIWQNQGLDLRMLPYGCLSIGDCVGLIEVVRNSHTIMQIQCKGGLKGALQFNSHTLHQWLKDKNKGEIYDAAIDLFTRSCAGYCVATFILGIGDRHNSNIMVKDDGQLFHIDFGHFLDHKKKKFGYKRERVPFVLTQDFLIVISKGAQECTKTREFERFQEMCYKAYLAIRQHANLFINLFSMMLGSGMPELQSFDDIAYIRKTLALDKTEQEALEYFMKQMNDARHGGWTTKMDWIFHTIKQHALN
Chain of H1047R PIK3CA enzyme (P27986 whole entry partner): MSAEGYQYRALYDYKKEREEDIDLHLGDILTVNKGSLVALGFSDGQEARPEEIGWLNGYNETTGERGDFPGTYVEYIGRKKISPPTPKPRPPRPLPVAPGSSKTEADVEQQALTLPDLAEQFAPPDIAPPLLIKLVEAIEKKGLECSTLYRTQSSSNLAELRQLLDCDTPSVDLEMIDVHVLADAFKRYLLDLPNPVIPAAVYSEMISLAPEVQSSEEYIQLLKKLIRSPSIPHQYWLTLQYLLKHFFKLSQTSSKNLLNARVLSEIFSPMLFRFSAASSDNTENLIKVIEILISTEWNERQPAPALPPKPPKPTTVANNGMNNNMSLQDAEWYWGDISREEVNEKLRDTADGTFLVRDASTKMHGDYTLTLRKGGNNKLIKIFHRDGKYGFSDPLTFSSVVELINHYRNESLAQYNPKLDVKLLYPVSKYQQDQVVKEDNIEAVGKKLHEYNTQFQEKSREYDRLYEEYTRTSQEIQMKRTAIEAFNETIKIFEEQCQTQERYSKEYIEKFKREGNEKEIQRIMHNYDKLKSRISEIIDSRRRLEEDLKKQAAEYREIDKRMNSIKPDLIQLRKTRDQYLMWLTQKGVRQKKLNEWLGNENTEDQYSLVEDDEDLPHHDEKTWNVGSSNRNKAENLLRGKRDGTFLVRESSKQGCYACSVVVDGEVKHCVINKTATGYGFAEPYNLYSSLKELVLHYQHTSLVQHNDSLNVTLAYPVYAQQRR

With `N#Cc1ccc(-c2cc(NC(=O)c3cc(F)cc(C(F)(F)F)c3)c3c(c2)C(=O)N[C@@H]3c2cc(F)ccc2Cl)cn1` (single isomer, unassigned) [Compound I-1000], the results for the IC50 against H1047R PIK3CA enzyme and in the experiment “cells” were not above 100 nM and less than 1000 nM, respectively.

Consider `O=C(Nc1cc(-c2cnn(C3CC3)c2)cc2c1[C@H](c1cc(F)ccc1Cl)NC2=O)c1cc(F)cc(C(F)(F)F)c1` (single isomer, unassigned) [Compound I-1022], for which the IC50 against H1047R PIK3CA enzyme is not above 100 nM; in “cells”, less than 1000 nM.

In the case of `O=C1N[C@@H](c2cc(F)ccc2Cl)c2c(NC(=O)N3C[C@@H](O)c4ccccc43)cc(Br)cc21` (single isomer, unassigned) [Compound I-1514], the IC50 at H1047R PIK3CA enzyme was not above 100 nM; in the experiment “cells”, 1000 to 5000 nM.

Consider `O=C(Nc1cc(-c2cnn(C(F)F)c2)cc2c1[C@H](c1cc(F)ccc1Cl)NC2=O)c1cc(F)cc(C(F)(F)F)c1` (single isomer, unassigned) [Compound I-1740], for which the IC50 at H1047R PIK3CA enzyme was not above 100 nM; in “cells”, less than 1000 nM.

For `CC(C)(O)c1cc(NC(=O)N2C[C@@H](O)c3ccccc32)c2c(c1)C(=O)N[C@H]2c1cc(F)ccc1Cl` (single isomer, unassigned) [Compound I-2124], the IC50 is not above 100 nM against H1047R PIK3CA enzyme and 1000 to 5000 nM in the experiment “cells”.

For the molecule `O=C1N[C@@H](c2cc(F)ccc2Cl)c2c(NC(=O)N3C[C@@H](O)c4cc(F)ccc43)cccc21` (single isomer, unassigned) [Compound I-2127], the IC50 against H1047R PIK3CA enzyme was not above 100 nM; in the experiment “cells” it was less than 1000 nM.

As for `Nc1cc(NC(=O)N2C[C@@H](O)c3ccccc32)c2c(c1)C(=O)N[C@H]2c1cc(F)ccc1Cl` (single isomer, unassigned) [Compound I-2133], the IC50 against H1047R PIK3CA enzyme was not above 100 nM; in “cells”, less than 1000 nM.

Turning to `O=C1N[C@@H](c2cc(F)ccc2Cl)c2c(NC(=O)N3C[C@H](O)c4c(F)cccc43)cccc21` (single isomer, unassigned) [Compound I-2142], the IC50 is not above 100 nM against H1047R PIK3CA enzyme and less than 1000 nM in “cells”.

Regarding `C[C@]1(O)CN(C(=O)Nc2cccc3c2[C@H](c2cc(F)ccc2Cl)NC3=O)c2ccccc21` (single isomer, unassigned) [Compound I-2205], the IC50 on H1047R PIK3CA enzyme was not above 100 nM; in the experiment “cells”, less than 1000 nM.

Regarding `O=C(Nc1cc(-c2cn3ncnc3cn2)cc2c1[C@H](c1cc(F)ccc1C(F)F)NC2=O)c1cc(F)cc(Cl)c1` (single isomer, unassigned) [Compound I-2259], the IC50 at H1047R PIK3CA enzyme is not above 100 nM; in “cells”, less than 1000 nM.

Regarding `C[C@]1(C(=O)Nc2cc(Br)cc3c2[C@@H](c2cc(F)ccc2Cl)NC3=O)CCC[C@@H](C(F)(F)F)C1` (single isomer, unassigned) [Compound I-2261], the results for the IC50 on H1047R PIK3CA enzyme and in “cells” were not above 100 nM and less than 1000 nM, respectively.

Consider `C[C@@]1(C(=O)Nc2cc(Br)cc3c2[C@H](c2cc(F)ccc2Cl)NC3=O)CCC[C@H](C(F)(F)F)C1` (single isomer, unassigned) [Compound I-2262], for which the IC50 against H1047R PIK3CA enzyme is 100 to 500 nM; in the experiment “cells”, 1000 to 5000 nM.

On to `O=C1N[C@@H](c2cc(F)ccc2Cl)c2c(NC(=O)N3C[C@@H](O)c4cc(F)c(F)cc43)cccc21` (single isomer, unassigned) [Compound I-2293], for which the results for the IC50 against H1047R PIK3CA enzyme and in the experiment “cells” were not above 100 nM and less than 1000 nM, respectively.

Regarding `O=C1N[C@H](c2cc(F)ccc2Cl)c2c(NC(=O)N3C[C@H](O)c4c3ccc(F)c4F)cccc21` (single isomer, unassigned) [Compound I-2310], the IC50 against H1047R PIK3CA enzyme was not above 100 nM; in the experiment “cells” it was less than 1000 nM.

For the molecule `O=C(Nc1cc(NC2=NC[C@@H](C(F)(F)F)O2)cc2c1[C@H](c1cc(F)ccc1Cl)NC2=O)c1cc(F)cc(C(F)(F)F)c1` (single isomer, unassigned) [Compound I-2324], the IC50 against H1047R PIK3CA enzyme is not above 100 nM; in “cells” it was less than 1000 nM.

Regarding `O=C1N[C@H](c2cc(F)ccc2Cl)c2c(NC(=O)N3C[C@H](C(F)F)c4ccccc43)cccc21` (single isomer, unassigned) [Compound I-2333], the figures for the IC50 on H1047R PIK3CA enzyme and in “cells” were not above 100 nM and 1000 to 5000 nM, respectively.

In the case of `O=C1N[C@@H](c2cc(F)ccc2Cl)c2c(NC(=O)N3C[C@@H](C(F)F)c4ccccc43)cccc21` (single isomer, unassigned) [Compound I-2334], the IC50 is not above 100 nM against H1047R PIK3CA enzyme and 1000 to 5000 nM in “cells”.

For `N#CCCc1cc(NC(=O)N2C[C@H](O)c3cc(F)ccc32)c2c(c1)C(=O)N[C@H]2c1cc(F)ccc1Cl` (single isomer, unassigned) [Compound I-2346], the figures for the IC50 against H1047R PIK3CA enzyme and in the experiment “cells” were not above 100 nM and 1000 to 5000 nM, respectively.

For the molecule `O=C1N[C@@H](c2cc(F)ccc2Cl)c2c(NC(=O)N3C[C@H](O)c4cc(F)ccc43)cc(-n3ccccc3=O)cc21` (single isomer, unassigned) [Compound I-2350], the IC50 was not above 100 nM against H1047R PIK3CA enzyme and 5000 to 10000 nM in “cells”.

As to `O=C1N[C@@H](c2cc(F)ccc2Cl)c2c(NC(=O)N3CCc4cc(F)ccc43)cc(-c3cnn(C(F)F)c3)cc21` (single isomer, unassigned) [Compound I-2357], the IC50 is not above 100 nM on H1047R PIK3CA enzyme and less than 1000 nM in “cells”.

Regarding `O=C1N[C@@H](c2cc(F)ccc2Cl)c2c(NC(=O)N3C[C@H](O)c4cc(F)ccc43)cc(-n3cccn3)cc21` (single isomer, unassigned) [Compound I-2364], the IC50 against H1047R PIK3CA enzyme is not above 100 nM; in “cells” it was 1000 to 5000 nM.

As for `O=C1N[C@H](c2cc(F)ccc2Cl)c2c(NC(=O)N3C[C@H](O)c4cc(F)ccc43)cc(-n3ccnn3)cc21` (single isomer, unassigned) [Compound I-2369], the IC50 against H1047R PIK3CA enzyme is not above 100 nM; in “cells” it was 1000 to 5000 nM.

For `O=C1N[C@@H](c2cc(F)ccc2Cl)c2c(NC(=O)N3C[C@@](O)(C(F)(F)F)c4ccccc43)cccc21` (single isomer, unassigned) [Compound I-2386], the IC50 on H1047R PIK3CA enzyme is not above 100 nM; in the experiment “cells”, less than 1000 nM.

With `O=C(Nc1cc(NC2=N[C@H](C(F)(F)F)CO2)cc2c1[C@H](c1cc(F)ccc1Cl)NC2=O)c1cc(F)cc(C(F)(F)F)c1` (single isomer, unassigned) [Compound I-2387], the values for the IC50 on H1047R PIK3CA enzyme and in the experiment “cells” were not above 100 nM and 1000 to 5000 nM, respectively.

Turning to `O=C(Nc1cc(NC2=N[C@@H](C(F)(F)F)CO2)cc2c1[C@H](c1cc(F)ccc1Cl)NC2=O)c1cc(F)cc(C(F)(F)F)c1` (single isomer, unassigned) [Compound I-2388], the IC50 was not above 100 nM against H1047R PIK3CA enzyme and 1000 to 5000 nM in the experiment “cells”.

For the molecule `O=C1N[C@H](c2cc(F)ccc2Cl)c2c(NC(=O)N3C[C@@H](O)c4cc(F)ccc43)cc(Cl)cc21` (single isomer, unassigned) [Compound I-2402], the IC50 on H1047R PIK3CA enzyme was not above 100 nM; in “cells”, less than 1000 nM.

Regarding `Nc1cc(NC(=O)N2C[C@@H](O)c3cc(F)ccc32)c2c(c1)C(=O)N[C@@H]2c1cc(F)ccc1Cl` (single isomer, unassigned) [Compound I-2410], the half-inhibitory concentration (IC50) against H1047R PIK3CA enzyme is not above 100 nM; in the experiment “cells” it was less than 1000 nM.

As to `Nc1cc(NC(=O)N2C[C@@H](O)c3cc(F)ccc32)c2c(c1)C(=O)N[C@H]2c1cc(F)ccc1Cl` (single isomer, unassigned) [Compound I-2411], the IC50 against H1047R PIK3CA enzyme was not above 100 nM; in the experiment “cells”, 10000 to 36000 nM.

Regarding `NCCc1cc(NC(=O)N2C[C@H](O)c3cc(F)ccc32)c2c(c1)C(=O)N[C@@H]2c1cc(F)ccc1Cl` (single isomer, unassigned) [Compound I-2443], the values for the IC50 at H1047R PIK3CA enzyme and in the experiment “cells” were not above 100 nM and 10000 to 36000 nM, respectively.

As to `O=C1N[C@H](c2cc(F)ccc2Cl)c2c(NC(=O)N3C[C@H](O)c4cc(F)ccc43)cc(-c3ccc(=O)n(C(F)F)c3)cc21` (single isomer, unassigned) [Compound I-2448], the results for the IC50 against H1047R PIK3CA enzyme and in the experiment “cells” were not above 100 nM and 1000 to 5000 nM, respectively.

Take `CC[C@@]1(O)CN(C(=O)Nc2cccc3c2[C@@H](c2cc(F)ccc2Cl)NC3=O)c2ccc(F)cc21` (single isomer, unassigned) [Compound I-2461]: the figures for the half-maximal inhibitory concentration (IC50) against H1047R PIK3CA enzyme and in the experiment “cells” were not above 100 nM and less than 1000 nM, respectively.

On to `O=C1N[C@@H](c2cc(F)ccc2Cl)c2c(NC(=O)N3C[C@@H](O)c4cc(F)ccc43)cc(-c3cnn(C(F)F)c3)cc21` (single isomer, unassigned) [Compound I-2477], for which the IC50 against H1047R PIK3CA enzyme is not above 100 nM; in “cells”, less than 1000 nM.

For the molecule `O=C1N[C@@H](c2cc(F)ccc2Cl)c2c(NC(=O)N3C[C@@](O)(C(F)F)c4ccccc43)cccc21` (single isomer, unassigned) [Compound I-2487], the figures for the IC50 at H1047R PIK3CA enzyme and in “cells” were not above 100 nM and less than 1000 nM, respectively.

As to `O=C1N[C@@H](c2cc(F)ccc2Cl)c2c(NC(=O)N3C[C@](O)(C(F)(F)F)c4cc(F)ccc43)ccc(-n3cccn3)c21` (single isomer, unassigned) [Compound I-2497], the IC50 at H1047R PIK3CA enzyme is not above 100 nM; in the experiment “cells”, less than 1000 nM.

For `C[C@@H](C#N)Cn1cc(-c2cc(NC(=O)N3C[C@@H](O)c4cc(F)ccc43)c3c(c2)C(=O)N[C@H]3c2cc(F)ccc2Cl)cn1` (single isomer, unassigned) [Compound I-2503], the IC50 at H1047R PIK3CA enzyme is not above 100 nM; in the experiment “cells” it was 5000 to 10000 nM.

For the molecule `O=C1N[C@@H](c2cc(F)ccc2Cl)c2c(NC(=O)N3C[C@@](O)(C(F)(F)F)c4ccccc43)cc(Cl)cc21` (single isomer, unassigned) [Compound I-2509], the IC50 against H1047R PIK3CA enzyme is not above 100 nM; in “cells”, less than 1000 nM.

Regarding `O=C1N[C@@H](c2cc(F)ccc2Cl)c2c(NC(=O)N3C[C@@](O)(C(F)(F)F)c4cc(F)ccc43)cc(Cl)cc21` (single isomer, unassigned) [Compound I-2513], the half-maximal inhibitory concentration (IC50) against H1047R PIK3CA enzyme was not above 100 nM; in the experiment “cells”, less than 1000 nM.

For the molecule `O=C1N[C@@H](c2cc(F)ccc2Cl)c2c(NC(=O)N3C[C@@](O)(C(F)(F)F)c4cc(F)ccc43)cccc21` (single isomer, unassigned) [Compound I-2518], the IC50 at H1047R PIK3CA enzyme was not above 100 nM; in the experiment “cells”, less than 1000 nM.

As to `O=C1N[C@@H](c2cc(F)ccc2Cl)c2c(NC(=O)N3C[C@](O)(C(F)(F)F)c4cc(F)ccc43)ccc(-n3ccnn3)c21` (single isomer, unassigned) [Compound I-2520], the results for the IC50 against H1047R PIK3CA enzyme and in “cells” were not above 100 nM and less than 1000 nM, respectively.

The values above are taken from patent publication US12581252B2, “Substituted pyrrolo[3,4-b]pyridines as PI3K-α inhibitors” (Relay Therapeutics, Inc., priority 2020, dated 2026).
